Source: US9085603B2, “Progesterone receptor antagonists” (Bayer Intellectual Property GmbH, priority 2010, dated 2015)
pIC50: −log10 of the molar value.

Tests used:
[1] = cited from earlier work
[2] = test system: uterus fibroids; settings: several clinical studies; cited from earlier work
[3] = test system: pregnant rats; assay: Abortive test on female rats (termination of early pregnancy); assay type: in vivo, rat; settings: for Abortion rate: d5-d7 p.c., autopsy d9 p.c.
Description: The antagonistic effect of the compounds according to the invention was tested on pregnant rats (6 rats per group) on day (d) 5 to 7 post coitum (p.c.) under conventional keeping and feeding conditions.
After successful pairing, the pregnant animals (presence of sperm in the vaginal smear on day 1 of the pregnancy=d1 p.c.) were randomized and divided into the treatment group and the control group. The animals were then given, subcutaneously or orally, in each case 0.15; 0.5; 1.5 or 5 mg/kg of the test compound or […] of vehicle (benzyl benzoate/ricinus oil: 1+4 [v/v]) daily from day 5 to day 7 (d5-d7 p.c.).
The autopsy was carried out on day 9 (d9 p.c.). As the parameter of the progesterone receptor antagonistic effect, the uterus was investigated with regard to the presence of nidation sites. Here, the complete lack of nidation sites, but also the presence of pathological, haemmorhagic or otherwise abnormal nidation sites, on day 9 (d9 p.c.) was evaluated as an abortion.

[4] = molecular target: T1, human progesterone receptor A (Homo sapiens, UniProt P06401); assay: Progesterone receptor antagonistic effect in stably transfected SK-N-MC cells, MTV-LUC reporter (PR-A); assay type: cell-based; settings: antagonism of 0.1 nmol/l promegestone, luciferase reporter, 24 hours
T1 construct: expressed in transfected cells; host or cells: SK-N-MC human neuroblastoma cells, stably transfected with pRChPR-A-neo and pMMTV-LUC
T1 sequence (P06401 1-769 isoform P06401-2): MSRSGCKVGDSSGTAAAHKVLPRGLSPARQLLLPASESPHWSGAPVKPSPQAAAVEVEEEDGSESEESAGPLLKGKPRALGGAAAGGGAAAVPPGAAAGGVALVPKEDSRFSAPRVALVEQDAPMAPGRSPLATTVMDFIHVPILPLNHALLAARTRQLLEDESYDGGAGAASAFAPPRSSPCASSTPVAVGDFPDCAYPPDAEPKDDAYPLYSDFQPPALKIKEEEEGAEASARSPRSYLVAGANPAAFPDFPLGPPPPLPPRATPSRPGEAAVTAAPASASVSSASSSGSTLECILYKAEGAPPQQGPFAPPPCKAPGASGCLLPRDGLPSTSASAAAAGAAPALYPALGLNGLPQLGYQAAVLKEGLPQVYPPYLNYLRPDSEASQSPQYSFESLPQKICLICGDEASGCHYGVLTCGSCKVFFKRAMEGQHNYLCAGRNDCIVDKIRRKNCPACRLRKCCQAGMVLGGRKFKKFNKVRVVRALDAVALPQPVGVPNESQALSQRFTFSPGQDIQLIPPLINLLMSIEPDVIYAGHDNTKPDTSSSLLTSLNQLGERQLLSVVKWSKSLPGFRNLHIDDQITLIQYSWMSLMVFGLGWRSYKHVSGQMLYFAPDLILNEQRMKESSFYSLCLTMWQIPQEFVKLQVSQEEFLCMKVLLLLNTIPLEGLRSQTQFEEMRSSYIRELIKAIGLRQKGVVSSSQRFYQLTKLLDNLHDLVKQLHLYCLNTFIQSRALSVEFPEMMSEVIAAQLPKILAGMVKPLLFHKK
Procedure, shortened: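 Stably transfected SK-N-MC cells with PR-A or PR-B and MMTV-LUC reporter, treated 24 h with 0.1 nmol/l promegestone plus test compound at 0.01 nmol/l–1 μmol/l. Luciferase in cell lysates read as RLU; values given as percentage efficacy and IC50.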

[5] = molecular target: T2, human progesterone receptor B (Homo sapiens, UniProt P06401); assay: Progesterone receptor antagonistic effect in stably transfected SK-N-MC cells, MTV-LUC reporter (PR-B); assay type: cell-based; settings: antagonism of 0.1 nmol/l promegestone, luciferase reporter, 24 hours
T2 construct: expressed in transfected cells; host or cells: SK-N-MC human neuroblastoma cells, stably transfected with pRChPR-B-neo and pMMTV-LUC
T2 sequence (P06401 1-933): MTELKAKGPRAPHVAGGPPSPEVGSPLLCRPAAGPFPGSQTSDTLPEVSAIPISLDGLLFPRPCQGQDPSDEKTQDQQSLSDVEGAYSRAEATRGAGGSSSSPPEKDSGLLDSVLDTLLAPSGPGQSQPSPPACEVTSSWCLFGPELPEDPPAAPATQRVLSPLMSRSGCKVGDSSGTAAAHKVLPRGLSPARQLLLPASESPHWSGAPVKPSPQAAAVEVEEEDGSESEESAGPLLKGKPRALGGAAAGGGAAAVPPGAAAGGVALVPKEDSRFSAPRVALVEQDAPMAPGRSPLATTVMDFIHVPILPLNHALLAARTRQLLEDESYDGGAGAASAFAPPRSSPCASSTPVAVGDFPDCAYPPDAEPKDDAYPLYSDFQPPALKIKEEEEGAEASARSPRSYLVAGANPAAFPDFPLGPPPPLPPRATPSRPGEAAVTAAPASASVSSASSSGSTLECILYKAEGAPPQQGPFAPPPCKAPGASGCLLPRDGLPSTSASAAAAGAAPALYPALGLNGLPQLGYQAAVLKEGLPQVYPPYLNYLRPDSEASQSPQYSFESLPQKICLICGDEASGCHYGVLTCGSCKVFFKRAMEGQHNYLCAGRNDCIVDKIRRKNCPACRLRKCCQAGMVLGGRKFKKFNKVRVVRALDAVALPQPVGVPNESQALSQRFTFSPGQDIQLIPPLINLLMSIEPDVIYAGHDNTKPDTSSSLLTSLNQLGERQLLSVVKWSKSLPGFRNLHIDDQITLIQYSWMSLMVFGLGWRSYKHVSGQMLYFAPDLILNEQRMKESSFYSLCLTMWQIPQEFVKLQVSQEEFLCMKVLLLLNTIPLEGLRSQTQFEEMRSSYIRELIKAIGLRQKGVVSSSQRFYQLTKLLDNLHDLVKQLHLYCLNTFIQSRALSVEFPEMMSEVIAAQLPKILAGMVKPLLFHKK
Description: Progesterone Receptor Antagonistic Effect in Stable Transfectants of Human Neuroblastoma Cells (SK-N-MC cells) with the Human Progesterone A or Progesterone B Receptor and a MTV-LUC Reporter Construct
SK-N-MC cells (human neuroblastoma cells), which have been stably transfected with plasmids which express the human progesterone receptor B (pRChPR-B-neo) or the human progesterone receptor A (pRChPR-A-neo) and a reporter construct (pMMTV-LUC), were incubated for 24 hours either in the absence (negative control) or in the presence of increasing amounts of the particular test compound (0.01 nmol/l, 0.1 nmol/l, 1 nmol/l, 10 nmol/l, 100 nmol/l and 1 μmol/l) in order to determine the agonistic efficacy. As a positive control of the reporter gene induction, the cells were treated with the synthetic gestagen promegestone (0.01 nmol/l, 0.1 nmol/l, 1 nmol/l, 10 nmol/l, 100 nmol/l and 1 μmol/l). To determine the antagonistic activity, the cells were treated with 0.1 nmol/l of promegestone and additionally with increasing amounts of the particular test compound (0.01 nmol/l, 0.1 nmol/l, 1 nmol/l, 10 nmol/l, 100 nmol/l and 1 μmol/l). The activity of the reporter gene LUC (LUC=luciferase) was determined in the cell lysates and measured as RLU (relative light units). All measurement values are given as percentage efficacy and as EC50 or IC50 concentrations.

SMILES: COCC(=O)[C@@]1(OC(C)=O)CC[C@H]2[C@@H]3CCC4=CC(=O)CCC4=C3[C@@H](c3ccc(N(C)C)cc3)C[C@@]21C [proellex]
- Liver enzymes ([1]; relatively high dosages): induction of liver enzymes
- Effect on uterus fibroids [2]: significant shrinkage of uterus fibroids
- Symptoms associated with uterus fibroids [2]: significant reduction in the symptoms

SMILES: CN(C)c1ccc([C@H]2C[C@]3(C)[C@@H](CC[C@]3(O)CCCO)[C@@H]3CCC4=CC(=O)CCC4=C32)cc1 [Onapristone, onapristone]
- Liver function tests ([1]; clinical studies, some patients): abnormalities in liver function tests were observed

SMILES: CC(=O)N1CCN(Cc2ccc([C@H]3C[C@@]4(C)C(CC[C@@]4(O)C(F)(F)C(F)(F)F)C4CCC5=CC(=O)CCC5=C43)cc2)CC1 (stereo partly drawn) [Example 11, (11β,17β)-11-{4-[(4-Acetylpiperazin-1-yl)methyl]phenyl}-17-hydroxy-17-(pentafluoroethyl)estra-4,9-dien-3-one]
- Abortion rate ([3]; daily dose 0.5 mg/kg p.o.): 100%
- Abortion rate ([3]; daily dose 1.5 mg/kg p.o.): 100%
- Abortion rate ([3]; daily dose 5.0 mg/kg p.o.): 100%
- In vivo properties in preclinical tests ([3]; preclinical tests, not further specified): exceptional in vivo properties
- pIC50 [4]: 10.02
- pIC50 [5]: 10.02

SMILES: CC#C[C@]1(O)CC[C@H]2[C@@H]3CCC4=CC(=O)CCC4=C3[C@@H](c3ccc(N(C)C)cc3)C[C@@]21C [mifepristone]
- Effect on uterus fibroids [2]: significant shrinkage of uterus fibroids
- Symptoms associated with uterus fibroids [2]: significant reduction in the symptoms
